Values quoted from earlier work, collected in PMC2804221 (The Journal of Biological Chemistry, 2009).
pIC50: −log10 of the molar value.

Exendin-4(9–39): truncated form of exendin-4, and a competitive antagonist
pIC50 (isolated ECD of GLP-1R): 8.22
mode of action at GLP-1R (GLP-1R): competitive antagonist
